IC50 data for 16 compounds are collected here from patent publication US9133157B2, “HIV protease inhibitors” (Merck Canada Inc., priority 2011, dated 2015).

Molecules are shown by their SMILES.

As usually defined, the IC50 is the concentration at which inhibition is half-maximal.

The target in this assay is WT HIV-1 protease (Human immunodeficiency virus type 1 group M subtype B (isolate HXB2) (HIV-1), UniProt P04585). Kind of assay: Assay for inhibition of microbial expressed HIV protease (Procedure A, peptide substrate, HPLC fluorescence detection). The assay is classed as biochemical. Conditions: WT HIV-1 protease 10 pM, substrate 400 micromolar, pH 5.5, 30 min preincubation, 1 hour at 30° C.; read-out: Enzyme inhibition IC50. As to the method:
The inhibition of WT HIV-1 protease was studied using the reaction of the protease (expressed in Eschericia coli) with a peptide substrate [Val-Ser-Gln-Asn-(betanaphthyl)Ala-Pro-Ile-Val (SEQ ID NO:1)]. Compounds were tested using Procedure A. In Procedure A, the test compound was first preincubated with the enzyme in assay buffer (50 mM sodium acetate, pH 5.5, 100 mM NaCl, and 0.1% BSA) for 30 minutes at room temperature. Substrate was then added to 400 micromolar in a total volume of 80 microliters containing 10 picomolar HIV-1 protease and the reaction was incubated for 1 hour at 30° C. The reaction was quenched with the addition of 120 microliters of 10% phosphoric acid. The product formation was determined after separation of product and substrate on a Zorbax Eclipse XDB-C18 column (Agilent Technologies, Santa Clara, Calif.) connected to an Agilent 1100 high performance liquid chromatography system with fluorescence detection (excitation 270 nanometer and emission 330 nanometer).
Regarding `COC(=O)N[C@H](C(=O)NCc1ccc([C@@H](CO)N(CC2CC(F)(F)C2)S(=O)(=O)c2ccc(N)c(F)c2)s1)C(c1ccccc1)c1ccccc1` [Example 43], the IC50 was 5.04 nM.
To `COC(=O)N[C@H](C(=O)N[C@H](c1ccc([C@@H](CO)N(CCC(C)(C)C)S(=O)(=O)c2ccc(N)cc2)s1)C(F)(F)F)C(c1ccccc1)c1ccccc1` [Example 44, N-[(1S)-1-{5-[(1R)-1-{[(4-aminophenyl)sulfonyl](3,3-dimethylbutyl)amino}-2-hydroxyethyl]thiophen-2-yl}-2,2,2-trifluoroethyl]-Nα-(methoxycarbonyl)-β-phenyl-L-phenylalaninamide] belongs 0.196 nM.
Turning to `[2H]C([2H])([2H])C(N([C@H](CO)c1ccc([C@@H](NC(=O)[C@@H](NC(=O)OC)C(c2ccccc2)c2ccccc2)C(F)(F)F)s1)S(=O)(=O)c1ccc(N)cc1)C([2H])([2H])[2H]` [Example 47, N-[(1S)-1-{5-[(1R)-1-{[(4-aminophenyl)sulfonyl][(1,1,1,3,3,3-^2H6)propan-2-yl]amino}-2-hydroxyethyl]thiophen-2-yl}-2,2,2-trifluoroethyl]-Nα-(methoxycarbonyl)-β-phenyl-L-phenylalaninamide], the IC50 came to 33.7 nM.
To `COC(=O)N[C@H](C(=O)N[C@H](c1ccc([C@@H](CO)N(C(C)C)S(=O)(=O)c2ccc(N)s2)s1)C(F)(F)F)C(c1ccccc1)c1ccccc1` [Example 50, N-[(1S)-1-{5-[(1R)-1-{[(5-aminothiophen-2-yl)sulfonyl](propan-2-yl)amino}-2-hydroxyethyl]thiophen-2-yl}-2,2,2-trifluoroethyl]-Nα-(methoxycarbonyl)-β-phenyl-L-phenylalaninamide] belongs 121 nM.
For `COC(=O)N[C@H](C(=O)N[C@H](c1ccc([C@@H](CO)N(CCC(C)(C)C)S(=O)(=O)c2ccn3ccnc3c2)s1)C(F)(F)F)C(c1ccccc1)c1ccccc1` [Example 51, N-[(1S)-1-(5-{(1R)-1-[(3,3-dimethylbutyl)(imidazo[1,2-c]pyridin-7-ylsulfonyl)amino]-2-hydroxyethyl}thiophen-2-yl)-2,2,2-trifluoroethyl]-Nα-(methoxycarbonyl)-β-phenyl-L-phenylalaninamide] the value was 17.5 nM; for `COC(=O)N[C@H](C(=O)N[C@H](c1ccc([C@@H](CO)N(CCC(C)(C)C)S(=O)(=O)c2cc(F)c(CO)c(F)c2)s1)C(F)(F)F)C(c1ccccc1)c1ccccc1` [Example 52, N-[(1S)-1-(5-{(1R)-1-[{[3,5-difluoro-4-(hydroxymethyl)phenyl]sulfonyl}(3,3-dimethylbutyl)amino]-2-hydroxyethyl}thiophen-2-yl)-2,2,2-trifluoroethyl]-Nα-(methoxycarbonyl)-β-phenyl-L-phenylalaninamide], 2 nM.
To `COC(=O)N[C@H](C(=O)N[C@H](c1ccc([C@@H](CO)N(CCC(C)(C)C)S(=O)(=O)c2ccc(CO)cc2)s1)C(F)(F)F)C(c1ccccc1)c1ccccc1` [Example 53, N-[(1S)-1-(5-{(1R)-1-[(3,3-dimethylbutyl){[4-(hydroxymethyl)phenyl]sulfonyl}amino]-2-hydroxyethyl}thiophen-2-yl)-2,2,2-trifluoroethyl]-Nα-(methoxycarbonyl)-β-phenyl-L-phenylalaninamide] belongs 0.156 nM; to `COC(=O)N[C@H](C(=O)N[C@H](c1ccc([C@@H](CO)N(CCC(C)(C)C)S(=O)(=O)c2cc3ccccc3[nH]2)s1)C(F)(F)F)C(c1ccccc1)c1ccccc1` [Example 55, N-[(1S)-1-(5-{(1R)-1-[(3,3-dimethylbutyl)(1H-indol-2-ylsulfonyl)amino]-2-hydroxyethyl}thiophen-2-yl)-2,2,2-trifluoroethyl]-Nα-(methoxycarbonyl)-β-phenyl-L-phenylalaninamide], 45.8 nM; to `COC(=O)N[C@H](C(=O)N[C@H](c1ccc([C@@H](CO)N(CCC(C)(C)C)S(=O)(=O)c2ccc(CO)c(C(F)(F)F)c2)s1)C(F)(F)F)C(c1ccccc1)c1ccccc1` [Example 56, N-[(1S)-1-(5-{(1R)-1-[(3,3-dimethylbutyl){[4-(hydroxymethyl)-3-(trifluoromethyl)phenyl]sulfonyl}amino]-2-hydroxyethyl}thiophen-2-yl)-2,2,2-trifluoroethyl]-Nα-(methoxycarbonyl)-β-phenyl-L-phenylalaninamide], 59.4 nM.
As for `COC(=O)N[C@H](C(=O)N[C@H](c1ccc([C@@H](CO)N(CCC(C)(C)C)S(=O)(=O)c2ccc(N)cn2)s1)C(F)(F)F)C(c1ccccc1)c1ccccc1` [Example 57, N-[(1S)-1-{5-[(1R)-1-{[(5-aminopyridin-2-yl)sulfonyl](3,3-dimethylbutyl)amino}-2-hydroxyethyl]thiophen-2-yl}-2,2,2-trifluoroethyl]-Nα-(methoxycarbonyl)-β-phenyl-L-phenylalaninamide], the IC50 worked out at 1.32 nM.
For `COC(=O)N[C@H](C(=O)N[C@H](c1ccc([C@@H](CO)N(CCC(C)(C)C)S(=O)(=O)c2cccc3[nH]ccc23)s1)C(F)(F)F)C(c1ccccc1)c1ccccc1` [Example 59, N-[(1S)-1-(5-{(1R)-1-[(3,3-dimethylbutyl)(1H-indol-4-ylsulfonyl)amino]-2-hydroxyethyl}thiophen-2-yl)-2,2,2-trifluoroethyl]-Nα-(methoxycarbonyl)-β-phenyl-L-phenylalaninamide] the value was 4.22 nM; for `COC(=O)N[C@H](C(=O)N[C@H](c1ccc([C@@H](CO)N(CC(C)C)S(=O)(=O)c2ccc(N)cc2)s1)C(F)(F)F)C(c1ccccc1)c1ccccc1` [Example 60, N-[(1S)-1-{5-[(1R)-1-{[(4-aminophenyl)sulfonyl](2-methylpropyl)amino}-2-hydroxyethyl]thiophen-2-yl}-2,2,2-trifluoroethyy]-Nα-(methoxycarbonyl)-β-phenyl-L-phenylalaninamide], 2.01 nM; for `COC(=O)N[C@H](C(=O)N[C@@H](c1ccc([C@@H](CO)N(CC(C)C)S(=O)(=O)c2ccc(N)cc2)s1)C(F)(F)F)C(c1ccccc1)c1ccccc1` [Example 61, N-[(1R)-1-{5-[(1R)-1-{[(4-aminophenyl)sulfonyl](2-methylpropyl)amino}-2-hydroxyethyl]thiophen-2-yl}-2,2,2-trifluoroethyl]-Nα-(methoxycarbonyl)-β-phenyl-L-phenylalaninamide], 23 nM.
For `CCN([C@H](CO)c1ccc([C@@H](NC(=O)[C@@H](NC(=O)OC)C(c2ccccc2)c2ccccc2)C(F)(F)F)s1)S(=O)(=O)c1ccc(N)cc1` [Example 62] the value was 18.5 nM; for `COC(=O)N[C@H](C(=O)N[C@H](c1ccc([C@@H](CO)N(CC(C)C)S(=O)(=O)c2ccc(N)cc2)s1)C1CC1)C(c1ccccc1)c1ccccc1` [Example 63, N-[(S)-{[4(1R)-1-{[(4-aminophenyl)sulfonyl](2-methylpropyl)amino}-2-hydroxyethyl]thiophen-2-yl}(cyclopropyl)methyl]-Nα-(methoxycarbonyl)-β-phenyl-L-phenylalaninamide], 3.98 nM.
With `COC(=O)N[C@H](C(=O)NC(C)(C)c1ccc(C(CO)N(CCC(C)C)S(=O)(=O)c2ccccc2)s1)C(c1ccccc1)c1ccccc1` (stereo partly shown) [Example 64], the IC50 is 6.48 nM.
